Experimental data reported in PMC6058667 (Drug Delivery, 2018).

How the values were obtained:
HepG-2 xenografts = assay: Antitumor study in nude mice bearing HepG-2 xenografts; format: in vivo; settings: oral, equivalent CuB dose 2 mg/kg, versus saline
Method: For in vivo study, we used a nude mouse as a model for HepG-2 […]. […] All treatments were orally administered on days 1, 3, 5, 7, 9, 11, 13, 15, 17, 19, and 21. The volume of the tumor was measured daily. On day 22, mice were killed and tumors were weighed.

HepG-2 cells = assay: MTT cytotoxicity assay; format: cell-based; settings: HepG-2 hepatoma cell line, 48 h
Method: The in vitro cytotoxicity of CuB-MMs-CPs was assessed using the MTT assay. HepG-2 cells were seeded onto 96-well plates in 200 μL. DMEM was applied to obtain a concentration of 5000 cells per well and cultured at 37 °C, 5% CO2 for 24 h to allow attachment of cells. […] The percentage of cell viability was calculated on the basis of the optical density values at 490 nm of the sample wells, which contained cells treated with the culture medium.

Cucurbitacin B [CuB] was tested, and the Tumor growth (HepG-2 xenografts) was “slightly slower growth than animals administered with saline” and the IC50 (HepG-2 cells) was 104 ± 50.3 nM.
